Measured values published in US12498382B2, “Biomarkers for vitiligo” (INCYTE CORPORATION, priority 2019, dated 2025).

Tested on: HaCaT cells
Experiment: Concentrations of inflammatory mediators produced by HaCaT cells stimulated with TNFα and IFNγ in presence/absence of JAK inhibitors (ProCarta)
Format: cell-based, human
Outline: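 Mediator levels (pg/mL) in culture media quantified by multiplex Luminex bead assay against standard curves. Media collected after 24 h at 37 °C from HaCaT cells exposed to 25 ng/mL each of IFNγ and TNFα following 15 min drug pre-incubation; drug final concentrations 25–200 nM (25, 50, 100, 200 nM).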

[1] = TNFα+IFNγ 25 ng/mL each, drug conc. 1st of 4 rows (cell not shown; prob. 25 nM)
[2] = TNFα+IFNγ 25 ng/mL each, drug conc. 2nd of 4 rows (cell not shown; prob. 50 nM)
[3] = TNFα+IFNγ 25 ng/mL each, drug conc. 3rd of 4 rows (cell not shown; prob. 100 nM)
[4] = TNFα+IFNγ 25 ng/mL each, drug conc. 4th of 4 rows (cell not shown; prob. 200 nM)
[5] = drug present, concentration not given

Cc1n[nH]c(C)c1-c1cnn(C2(CC#N)CN(c3cc(F)c(C(=O)N[C@@H](C)C(F)(F)F)cc3F)C2)c1 [Cpd C, 4-[3-(Cyanomethyl)-3-(3′,5′-dimethyl-1H,1′H-4,4′-bipyrazol-1-yl)azetidin-1-yl]-2,5-difluoro-N-[(1S)-2,2,2-trifluoro-1-methylethyl]benzamide]
IFN gamma concentration [1]: 27765.18 ± 4653.71 pg/mL
IL1RA concentration [1]: 6175.66 ± 277.7 pg/mL
IL1 alpha concentration [1]: 7.74 ± 0.36 pg/mL
IL1 beta concentration [1]: 8.88 ± 0.35 pg/mL
IL2 concentration [1]: 31.39 ± 1.44 pg/mL
IL4 concentration [1]: 8.31 ± 2.19 pg/mL
IL5 concentration [1]: 27.03 ± 1.35 pg/mL
IL6 concentration [1]: 774.87 ± 31.09 pg/mL
IL7 concentration [1]: 2.18 ± 0.15 pg/mL
IL8 concentration [1]: 2879.27 ± 117.07 pg/mL
IL9 concentration [1]: 3.37 ± 0.33 pg/mL
IL10 concentration [1]: 0.75 ± 0.05 pg/mL
IL12p70 concentration [1]: 1.97 ± 0.22 pg/mL
IL13 concentration [1]: 2.93 ± 0.41 pg/mL
IL15 concentration [1]: 3.97 ± 0.71 pg/mL
IL17A concentration [1]: 4.27 ± 0.42 pg/mL
IL18 concentration [1]: 163.63 ± 3.29 pg/mL
IL21 concentration [1]: 2.71 ± 0.18 pg/mL
IL22 concentration [1]: 7.15 ± 1.16 pg/mL
IL23 concentration [1]: 7.43 ± 0 pg/mL
IL27 concentration [1]: 8.88 ± 1.64 pg/mL
IL31 concentration [1]: 3.52 ± 0.53 pg/mL
IP-10/CXCL10 concentration [1]: 3999.9 ± 370.53 pg/mL
LIF concentration [1]: 67.72 ± 2.04 pg/mL
MCP1 concentration [1]: 15200 ± 0 pg/mL
MIP1 alpha concentration [1]: 101.71 ± 3.84 pg/mL
MIP1 beta concentration [1]: 318.92 ± 6.03 pg/mL
PDGF-BB concentration [1]: 4.93 ± 0.21 pg/mL
PIGF-1 concentration [1]: 58.04 ± 2.17 pg/mL
RANTES concentration [1]: 216.88 ± 13.45 pg/mL
SCF concentration [1]: 4.34 ± 0.19 pg/mL
SDF-1 alpha concentration [1]: 3503.89 ± 90.15 pg/mL
TNF alpha concentration [1]: 11212.78 ± 1168.53 pg/mL
TNF beta concentration [1]: 5.68 ± 1.4 pg/mL
VEGF-A concentration [1]: 1261.47 ± 37.95 pg/mL
VEGF-D concentration [1]: 8.6 ± 0.74 pg/mL
IFN gamma concentration [2]: 23531.94 ± 2644.35 pg/mL
IL1RA concentration [2]: 6065 ± 325.72 pg/mL
IL1 alpha concentration [2]: 7.01 ± 0.39 pg/mL
IL1 beta concentration [2]: 8.72 ± 0.47 pg/mL
IL2 concentration [2]: 29.87 ± 1.38 pg/mL
IL4 concentration [2]: 5.24 ± 0.99 pg/mL
IL5 concentration [2]: 26.49 ± 1.58 pg/mL
IL6 concentration [2]: 710.89 ± 36.7 pg/mL
IL7 concentration [2]: 2.02 ± 0.07 pg/mL
IL8 concentration [2]: 2869.74 ± 167.65 pg/mL
IL9 concentration [2]: 3.7 ± 0^ pg/mL
IL10 concentration [2]: 0.74 ± 0.06 pg/mL
IL12p70 concentration [2]: 1.72 ± 0.2 pg/mL
IL13 concentration [2]: 2.24 ± 0.28 pg/mL
IL15 concentration [2]: 2.29 ± 0.44 pg/mL
IL17A concentration [2]: 3.48 ± 0.39 pg/mL
IL18 concentration [2]: 156.41 ± 4.19 pg/mL
IL21 concentration [2]: 2.88 ± 0 pg/mL
IL22 concentration [2]: 8.03 ± 0.87 pg/mL
IL23 concentration [2]: 7.43 ± 0 pg/mL
IL27 concentration [2]: 5.98 ± 1.08 pg/mL
IL31 concentration [2]: 3.36 ± 0.27 pg/mL
IP-10/CXCL10 concentration [2]: 3665.2 ± 277.11 pg/mL
LIF concentration [2]: 67.64 ± 3.17 pg/mL
MCP1 concentration [2]: 33175.72 ± 17975.72 pg/mL
MIP1 alpha concentration [2]: 104.54 ± 6.56 pg/mL
MIP1 beta concentration [2]: 318.37 ± 9.88 pg/mL
PDGF-BB concentration [2]: 5.22 ± 0.25 pg/mL
PIGF-1 concentration [2]: 55.59 ± 2.74 pg/mL
RANTES concentration [2]: 201.93 ± 15.44 pg/mL
SCF concentration [2]: 4.25 ± 0.22 pg/mL
SDF-1 alpha concentration [2]: 3471.01 ± 141.19 pg/mL
TNF alpha concentration [2]: 10367.04 ± 1016.28 pg/mL
TNF beta concentration [2]: 5.54 ± 0.56 pg/mL
VEGF-A concentration [2]: 1268.91 ± 59.05 pg/mL
VEGF-D concentration [2]: 8.44 ± 0.66 pg/mL
IFN gamma concentration [3]: 23113.79 ± 2086.62 pg/mL
IL1RA concentration [3]: 6167.55 ± 367.54 pg/mL
IL1 alpha concentration [3]: 7.27 ± 0.47 pg/mL
IL1 beta concentration [3]: 8.55 ± 0.34 pg/mL
IL2 concentration [3]: 30.51 ± 1.23 pg/mL
IL4 concentration [3]: 6.26 ± 1.35 pg/mL
IL5 concentration [3]: 28.64 ± 1.4 pg/mL
IL6 concentration [3]: 690.4 ± 35.25 pg/mL
IL7 concentration [3]: 2.04 ± 0.11 pg/mL
IL8 concentration [3]: 3035.52 ± 206.85 pg/mL
IL9 concentration [3]: 4.16 ± 0.46 pg/mL
IL10 concentration [3]: 0.75 ± 0.07 pg/mL
IL12p70 concentration [3]: 1.75 ± 0.23 pg/mL
IL13 concentration [3]: 2.58 ± 0.36 pg/mL
IL15 concentration [3]: 2.42 ± 0.54 pg/mL
IL17A concentration [3]: 3.77 ± 0.42 pg/mL
IL18 concentration [3]: 162.12 ± 5.14 pg/mL
IL21 concentration [3]: 2.6 ± 0.28 pg/mL
IL22 concentration [3]: 7.31 ± 1.07 pg/mL
IL23 concentration [3]: 6.7 ± 0.73 pg/mL
IL27 concentration [3]: 5.7 ± 1.04 pg/mL
IL31 concentration [3]: 2.95 ± 0.38 pg/mL
IP-10/CXCL10 concentration [3]: 3860.41 ± 323.05 pg/mL
LIF concentration [3]: 73.12 ± 3.62 pg/mL
MCP1 concentration [3]: 26334.64 ± 11134.64 pg/mL
MIP1 alpha concentration [3]: 96.4 ± 4.18 pg/mL
MIP1 beta concentration [3]: 324.42 ± 8.52 pg/mL
PDGF-BB concentration [3]: 5.57 ± 0.23 pg/mL
PIGF-1 concentration [3]: 58.69 ± 3.37 pg/mL
RANTES concentration [3]: 207.79 ± 17.38 pg/mL
SCF concentration [3]: 4.59 ± 0.25 pg/mL
SDF-1 alpha concentration [3]: 3521.98 ± 154.06 pg/mL
TNF alpha concentration [3]: 10632.61 ± 795.65 pg/mL
TNF beta concentration [3]: 4.6 ± 0.46 pg/mL
VEGF-A concentration [3]: 1335.99 ± 63.65 pg/mL
VEGF-D concentration [3]: 9.25 ± 0.7 pg/mL
IFN gamma concentration [4]: 25179.01 ± 3591.71 pg/mL
IL1RA concentration [4]: 5756.59 ± 328.24 pg/mL
IL1 alpha concentration [4]: 6.45 ± 0.38 pg/mL
IL1 beta concentration [4]: 8.71 ± 0.5 pg/mL
IL2 concentration [4]: 30.68 ± 1.62 pg/mL
IL4 concentration [4]: 7.07 ± 0.88 pg/mL
IL5 concentration [4]: 27.1 ± 1.76 pg/mL
IL7 concentration [4]: 1.91 ± 0.11 pg/mL
IL8 concentration [4]: 2874.26 ± 169.59 pg/mL
IL9 concentration [4]: 3.66 ± 0.04 pg/mL
IL10 concentration [4]: 0.84 ± 0.08 pg/mL
IL12p70 concentration [4]: 1.79 ± 0.23 pg/mL
IL13 concentration [4]: 2.12 ± 0.3 pg/mL
IL15 concentration [4]: 2.32 ± 0.44 pg/mL
IL17A concentration [4]: 4 ± 0.34 pg/mL
IL18 concentration [4]: 157.36 ± 4.56 pg/mL
IL21 concentration [4]: 2.45 ± 0.29 pg/mL
IL22 concentration [4]: 8.24 ± 0.53 pg/mL
IL23 concentration [4]: 6.95 ± 0.48 pg/mL
IL27 concentration [4]: 6.59 ± 0.99 pg/mL
IL31 concentration [4]: 3.34 ± 0.69 pg/mL
IP-10/CXCL10 concentration [4]: 3835.78 ± 304.58 pg/mL
LIF concentration [4]: 70.66 ± 3.22 pg/mL
MCP1 concentration [4]: 19811.45 ± 4611.45 pg/mL
MIP1 alpha concentration [4]: 98.72 ± 3.87 pg/mL
MIP1 beta concentration [4]: 318.74 ± 8.72 pg/mL
PDGF-BB concentration [4]: 5.52 ± 0.27 pg/mL
PIGF-1 concentration [4]: 55.71 ± 3.28 pg/mL
RANTES concentration [4]: 189.62 ± 13.78 pg/mL
SCF concentration [4]: 4.23 ± 0.15 pg/mL
SDF-1 alpha concentration [4]: 3436.48 ± 134.91 pg/mL
TNF alpha concentration [4]: 10619.05 ± 1276.72 pg/mL
TNF beta concentration [4]: 3.78 ± 0.57 pg/mL
VEGF-A concentration [4]: 1262.36 ± 57.42 pg/mL
VEGF-D concentration [4]: 8.82 ± 0.7 pg/mL
IL1RA concentration [5]: 488.84 ± 49.85 pg/mL
IL1 alpha concentration [5]: 0.3 ± 0.05 pg/mL
IL1 beta concentration [5]: 0.93 ± 0.17 pg/mL
IL2 concentration [5]: 2.65 ± 0.28 pg/mL
IL4 concentration [5]: 4.89 ± 1.18 pg/mL
IL5 concentration [5]: 3.04 ± 0.41 pg/mL
IL6 concentration [5]: 28.49 ± 2.89 pg/mL
IL7 concentration [5]: 3.35 ± 0.18 pg/mL
IL8 concentration [5]: 269.53 ± 10.35 pg/mL
IL9 concentration [5]: 3.65 ± 0.2 pg/mL
IL10 concentration [5]: 0.4 ± 0.11 pg/mL
IL12p70 concentration [5]: 1.52 ± 0.29 pg/mL
IL13 concentration [5]: 1.08 ± 0.13 pg/mL
IL15 concentration [5]: 1.98 ± 0.49 pg/mL
IL17A concentration [5]: 1.39 ± 0.22 pg/mL
IL18 concentration [5]: 5.89 ± 0.58 pg/mL
IL21 concentration [5]: 2.33 ± 0.29 pg/mL
IL22 concentration [5]: 7.16 ± 1.16 pg/mL
IL23 concentration [5]: 6.54 ± 1 pg/mL
IL27 concentration [5]: 9.17 ± 2.36 pg/mL
IL31 concentration [5]: 3.28 ± 0.31 pg/mL
IP-10/CXCL10 concentration [5]: 19.83 ± 0.4 pg/mL
LIF concentration [5]: 24.24 ± 1.14 pg/mL
MCP1 concentration [5]: 1158.23 ± 47.13 pg/mL
MIP1 alpha concentration [5]: 2.9 ± 0.21 pg/mL
MIP1 beta concentration [5]: 117.97 ± 3.75 pg/mL
PDGF-BB concentration [5]: 2.19 ± 0.17 pg/mL
PIGF-1 concentration [5]: 21.19 ± 1.05 pg/mL
RANTES concentration [5]: 8.61 ± 0.52 pg/mL
SCF concentration [5]: 2 ± 0.1 pg/mL
SDF-1 alpha concentration [5]: 1028.82 ± 43.21 pg/mL
TNF alpha concentration [5]: 2.82 ± 0.72 pg/mL
TNF beta concentration [5]: 4.5 ± 0.5 pg/mL
VEGF-A concentration [5]: 609.51 ± 15.83 pg/mL
VEGF-D concentration [5]: 3.63 ± 0.6 pg/mL
